The text below walks through data of article PMC5315611 (Clinical cancer research : an official journal of the …, 2016).

The test system of data set [1] is relapsed or refractory acute leukemia. As to conditions: cited from earlier work.
Data set [2] in a line: Veliparib plasma pharmacokinetics. To be noted: after multiple doses, MTD (80 mg) vs highest administered dose (100 mg).
The nature of data set [3]: clinical. As to conditions: human, in vivo, po; for half-life: t1/2.
The test system of data set [4] is AML cell lines and clinical samples. To be noted: in vitro; cited from earlier work.
The conditions of data set [5]: human, in vivo, po.

Read-outs that look alike come from different tables or passages of the source.

With `N.N.O=C([O-])C1(C(=O)[O-])CCC1.[Pt+2]` [carboplatin], the “carboplatin dose at the MTD of the combination” value (CI IV days 3-7, with veliparib 80 mg twice daily + topotecan 1.2 mg/m^2/d) is on record as 150 mg/m^2/d. Besides, the “maximum tolerated dose (MTD) of carboplatin” value in data set [1] (with topotecan simultaneously for 5 days) is 150 mg/m^2/day.

Take `C[C@]1(c2nc3c(C(N)=O)cccc3[nH]2)CCCN1` [veliparib]: the “increase in AUC” value in data set [2] stood at 2.0 fold. In addition, the Cmax in data set [3] (10 mg) is 74.6 ± 33 ng/mL; in data set [3] (20 mg), 102 ± 31.6 ng/mL; in data set [3] (40 mg), 231 ± 128 ng/mL; in data set [3] (90 mg), 509 ± 101 ng/mL; in data set [3] (100 mg), 1120 ± 718 ng/mL; in data set [5] (80 mg), 608.7 ± 260.3 (35) ng/mL. Moreover, the half-life (commonly the time needed for the level to fall by half in the phase considered) in data set [3] (10 mg) was 5.5 ± 3.5 h; in data set [3] (20 mg), 4.7 ± 1.1 h; in data set [3] (40 mg), 4.1 ± 0.9 h; in data set [3] (90 mg) it was 3.2 ± 1.2 h; in data set [3] (100 mg) it was 5.9 ± 2.4 h. In addition, the Tmax was 2 h in data set [3] (10 mg); 2 h in data set [3] (20 mg); 1 h in data set [3] (40 mg); 1 h in data set [3] (90 mg); 1 h in data set [3] (100 mg); 1.1 (0.3 - 6.0; 35) h in data set [5] (80 mg). Also, in data set [4], the “effect on the antiproliferative and proapoptotic effects of topotecan” value is reported as “enhances”. Further, the “synergy with cytarabine or etoposide” value in data set [4] was “no synergy”. For the same compound, the Cl/F in data set [5] (10 mg) is given as 27.7 ± 9.3 (23) L/h; in data set [5] (20 mg), 31.7 ± 7.7 (12) L/h; in data set [5] (40 mg), 36.4 ± 15.4 (5) L/h; in data set [5] (80 mg), 26.2 ± 7.1 (30) L/h; in data set [5] (90 mg) it was 35.9 ± 10.2 (3) L/h; in data set [5] (100 mg) it was 44.9 ± 50.6 (4) L/h. The t1/2 in data set [5] (80 mg) is on record as 4.7 ± 1.4 (30) h. Moreover, the “maximum tolerated dose (MTD) of veliparib” value (with CI IV topotecan 1.2 mg/m^2/d + carboplatin 150 mg/m^2/day on days 3-7) worked out at 80 mg twice daily.

On to `CC[C@@]1(O)C(=O)OCc2c1cc1n(c2=O)Cc2cc3c(CN(C)C)c(O)ccc3nc2-1` [topotecan], for which the “topotecan dose at the MTD of the combination” value (CI IV days 3-7, with veliparib 80 mg twice daily + carboplatin 150 mg/m^2/d) worked out at 1.2 mg/m^2/d. The “toxicity associated with topotecan 1.3 mg/m^2” value (in vivo) is given as “dose-limiting GI mucositis”. Besides, in data set [1] (with carboplatin simultaneously for 5 days), the “maximum tolerated dose (MTD) of topotecan” value is listed as 1.6 mg/m^2/day.
